Common to all, as to assay type: cell-based
Assay [1] has as its system mitochondrial transient permeability pore (TPP). As to the kind of experiment: Opening of the mitochondrial transient permeability pore (TPP). As to conditions: during ischaemia and/or reperfusion events.
The subject of assay [2] is complex I of the endothelial cell respiratory chain. Briefly: Production of ROS by complex I of the endothelial cell respiratory chain. The note with it: endothelial cells; by inhibiting reverse electron flow.
Assay [3] has as its system human dermal microvascular endothelial cell line HMEC-1. As to the kind of experiment: Mitochondrial membrane potential (TMRM probe, confocal microscopy) in HMEC-1 cells under ischaemia/reperfusion. The protocol:
The immortalized human dermal microvascular endothelial cell line HMEC-1 was used. […] They were analysed by confocal microscopy before the treatment, after 60 minutes of ischaemia, after 90 minutes of reperfusion and after 120 minutes of reperfusion.

`CC1N=C(N)NC(N(C)C)=N1` (stereo not shown) [E 008]: in assay [1], the “opening of the mitochondrial transient permeability pore (TPP)” value is listed as “reduce the opening of the mitochondrial transient permeability pore (TPP)”. In addition, in assay [2], the “production of ROS by complex I of the respiratory chain” value was “reduce the production of ROS”. The “mitochondrial membrane potential after reperfusion” value in assay [3] (HMEC-1, 30 min pre-incubation, 60 min ischaemia, reperfusion 90 and 120 min, TMRM 30 nM) is listed as “protected against the damage induced by the reperfusion”. In addition, the “loss of potential of the mitochondrial membrane” value in assay [3] (during ischaemia and/or reperfusion events) is “prevent the loss of potential of the mitochondrial membrane”.

The values above are taken from patent publication US20120115872A1, “COMBINATION OF A SODIUM-PROTON EXCHANGER INHIBITOR AND OF A DIHYDRO-1,3,5-TRIAZINE AMINE DERIVATIVE” (Merck Patent GMBH, priority 2009, published 2012).
